From PubChem BioAssay (NCI)
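Dose response: 5 concentrations. Exposure: 48 h. Format: 96-well plates. Endpoint: linear interpolation; highest concentration if not reached. GI50 is the concentration that inhibits growth by half. TGI: total growth inhibition.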

Assays:
Test in all cases: growth of human tumour cells (NCI), 48 h
[1] = system: UACC-257 melanoma
[2] = system: SK-MEL-5 melanoma
[3] = system: UACC-62 melanoma
[4] = system: OVCAR-3 ovarian
[5] = system: RXF 393 renal
[6] = system: A549 NSCLC
[7] = system: SF-539 CNS
[8] = system: MALME-3M melanoma
[9] = system: TK-10 renal
[10] = system: MOLT-4 leukemia
[11] = system: UO-31 renal
[12] = system: NCI-H23 lung
[13] = system: DU-145 prostate
[14] = system: SK-OV-3 ovarian
[15] = system: MDA-MB-231 breast
[16] = system: OVCAR-5 ovarian
[17] = system: EKVX NSCLC
[18] = system: HCC-2998 colon
[19] = system: A498 renal
[20] = system: 786-0 renal
[21] = system: OVCAR-8 ovarian
[22] = system: NCI/ADR-RES ovarian
[23] = system: SN12C renal
[24] = system: NCI-H522 lung
[25] = system: MCF7 breast
[26] = system: IGROV1 ovarian
[27] = system: SNB-19 CNS
[28] = system: T-47D breast
[29] = system: HT29 colon
[30] = system: HCT-15 colon
[31] = system: U251 CNS
[32] = system: HCT-116 colon
[33] = system: CCRF-CEM leukemia
[34] = system: BT-549 breast
[35] = system: SK-MEL-28 melanoma
[36] = system: KM12 colon
[37] = system: LOX IMVI melanoma
[38] = system: SR leukemia
[39] = system: HL-60(TB) leukemia
[40] = system: RPMI-8226 leukemia
[41] = system: COLO 205 colon
[42] = system: SNB-75 CNS
[43] = system: HOP-62 NSCLC
[44] = system: MDA-MB-435
[45] = system: HOP-92 NSCLC
[46] = system: NCI-H226 lung
[47] = system: SK-MEL-2 melanoma
[48] = system: CAKI-1 renal
[49] = system: M14 melanoma
[50] = system: PC-3 prostate
[51] = system: SF-295 CNS
[52] = system: ACHN renal
[53] = system: OVCAR-4 ovarian
[54] = system: K-562 leukemia
[55] = system: NCI-H460 lung
[56] = system: SW-620 colon
[57] = system: SF-268 CNS
[58] = system: HS 578T breast

CCCCOc1ccc(/C=N/Nc2cc(C)nc3ccc(Cl)cc23)cc1
GI50 [1]: 1.61 µM
TGI [1]: 3.11 µM
GI50 [2]: 1.61 µM
TGI [2]: 2.97 µM
GI50 [3]: 1.61 µM
TGI [3]: 3.02 µM
GI50 [4]: 2.03 µM
TGI [4]: 3.78 µM
GI50 [5]: 1.41 µM
TGI [5]: 2.74 µM
GI50 [6]: 1.86 µM
TGI [6]: 3.44 µM
GI50 [7]: 1.84 µM
TGI [7]: 3.28 µM
GI50 [8]: 1.85 µM
TGI [8]: 3.38 µM
GI50 [9]: 1.87 µM
TGI [9]: 3.28 µM
GI50 [10]: 1.7 µM
TGI [10]: 3.61 µM
GI50 [11]: 1.56 µM
TGI [11]: 2.93 µM
GI50 [12]: 1.77 µM
TGI [12]: 3.42 µM
GI50 [13]: 1.82 µM
TGI [13]: 3.71 µM
GI50 [14]: 1.8 µM
TGI [14]: 3.27 µM
GI50 [15]: 1.74 µM
TGI [15]: 3.25 µM
GI50 [16]: 1.82 µM
TGI [16]: 3.24 µM
GI50 [17]: 1.63 µM
TGI [17]: 3.01 µM
GI50 [18]: 1.91 µM
TGI [18]: 3.38 µM
GI50 [19]: 1.52 µM
TGI [19]: 2.93 µM
GI50 [20]: 2 µM
TGI [20]: 3.76 µM
GI50 [21]: 1.78 µM
TGI [21]: 3.46 µM
GI50 [22]: 1.73 µM
TGI [22]: 3.36 µM
GI50 [23]: 1.63 µM
TGI [23]: 3.08 µM
GI50 [24]: 1.72 µM
TGI [24]: 3.29 µM
GI50 [25]: 1.65 µM
TGI [25]: 3.37 µM
GI50 [26]: 1.93 µM
TGI [26]: 3.63 µM
GI50 [27]: 1.81 µM
TGI [27]: 3.3 µM
GI50 [28]: 1.73 µM
TGI [28]: 3.77 µM
GI50 [29]: 1.24 µM
TGI [29]: 2.61 µM
GI50 [30]: 1.35 µM
TGI [30]: 2.74 µM
GI50 [31]: 1.72 µM
TGI [31]: 3.19 µM
GI50 [32]: 2.13 µM
TGI [32]: 4.85 µM
GI50 [33]: 1.86 µM
TGI [33]: 4.48 µM
GI50 [34]: 1.76 µM
TGI [34]: 3.43 µM
GI50 [35]: 1.66 µM
TGI [35]: 3.08 µM
GI50 [36]: 1.93 µM
TGI [36]: 3.87 µM
GI50 [37]: 1.69 µM
TGI [37]: 3.09 µM
GI50 [38]: 0.501 µM
TGI [38]: 3.13 µM
GI50 [39]: 1.76 µM
TGI [39]: 3.65 µM
GI50 [40]: 1.92 µM
TGI [40]: 4.53 µM
GI50 [41]: 2.01 µM
TGI [41]: 4.03 µM
GI50 [42]: 1.75 µM
TGI [42]: 3.33 µM
GI50 [43]: 1.62 µM
TGI [43]: 3.28 µM
GI50 [44]: 1.73 µM
TGI [44]: 3.17 µM
GI50 [45]: 1.43 µM
TGI [45]: 2.99 µM
GI50 [46]: 1.63 µM
TGI [46]: 3.41 µM
GI50 [47]: 1.85 µM
TGI [47]: 3.43 µM
GI50 [48]: 1.68 µM
TGI [48]: 3.07 µM
GI50 [49]: 1.89 µM
TGI [49]: 3.91 µM
GI50 [50]: 1.71 µM
TGI [50]: 3.35 µM
GI50 [51]: 1.66 µM
TGI [51]: 3.1 µM
GI50 [52]: 1.73 µM
TGI [52]: 3.1 µM
GI50 [53]: 1.56 µM
TGI [53]: 3 µM

Cc1cccc(NC2=NCCO2)c1Cl
TGI [1]: > 100 µM
TGI [2]: > 100 µM
TGI [3]: > 100 µM
TGI [5]: > 100 µM
TGI [6]: > 100 µM
TGI [7]: > 100 µM
TGI [8]: > 100 µM
TGI [9]: > 100 µM
TGI [10]: > 100 µM
TGI [11]: > 100 µM
TGI [54]: > 100 µM
TGI [12]: > 100 µM
TGI [13]: > 100 µM
TGI [14]: > 100 µM
TGI [55]: > 100 µM
TGI [15]: > 100 µM
TGI [16]: > 100 µM
TGI [17]: > 100 µM
TGI [18]: > 100 µM
TGI [19]: > 100 µM
TGI [20]: > 100 µM
TGI [56]: > 100 µM
TGI [21]: > 100 µM
TGI [22]: > 100 µM
TGI [23]: > 100 µM
TGI [25]: > 100 µM
TGI [26]: > 100 µM
TGI [27]: > 100 µM
TGI [28]: > 100 µM
TGI [29]: > 100 µM
TGI [30]: > 100 µM
TGI [31]: > 100 µM
TGI [57]: > 100 µM
TGI [32]: > 100 µM
TGI [33]: > 100 µM
TGI [35]: > 100 µM
TGI [36]: > 100 µM
TGI [38]: > 100 µM
TGI [58]: > 100 µM
TGI [39]: > 100 µM
TGI [40]: > 100 µM
TGI [41]: > 100 µM
TGI [42]: > 100 µM
TGI [43]: > 100 µM
TGI [44]: > 100 µM
TGI [45]: > 100 µM
TGI [46]: > 100 µM
TGI [49]: > 100 µM
TGI [51]: > 100 µM
TGI [52]: > 100 µM
TGI [53]: > 100 µM
